Patent publication US10189826B2, “Heterocyclic compounds and methods of use” (Medivation Technologies LLC, priority 2015, dated 2019)

Experiments:
Assay type in all cases: cell-based
[1] = test system: SREBP2 cleavage in HEPG2 cells; experiment: SREBP2 cleavage in HEPG2 cells (Western blot normalized to actin); details: 20 μM, 1 day, DMEM without FBS
Procedure: Average SREBP2 cleavage in HEPG2 cells was measured in the presence of compounds disclosed in Table 1. HepG2 cells were seeded at 500,000 cells per well in 6-well plates in DMEM supplemented with 10% FBS. After 2 days, cells were treated with compounds (20 μM) for 1 day in DMEM without FBS. Western blots were normalized with respect to actin.

[2] = test system: HepG2 cells; experiment: Cell viability in HepG2 cells (MTS); details: 20 μM, 3 days, DMEM without FBS
Procedure: For viability measurements, HepG2 cells were seeded at 5,000 cells per well in 96-well plates in DMEM supplemented with 10% FBS. After 1 day in culture, cells were treated with compounds (20 μM) for 3 days in DMEM without FBS. Viability was measured by MTS. Treatment with compounds was carried out in medium without FBS, and viability was measured by MTS.

[3] = test system: SREBP-2 transcriptional activity (SREBP2 cleavage) in HepG2_LSSprom cells; experiment: Luciferase reporter driven by a SREBP-2 specific promoter in HepG2_LSSprom cells; details: 5 μM, HepG2_LSSprom cells, medium without FBS
Outline: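 HepG2_LSSprom cells dosed at 0.625-10 μM in serum-free medium for 6 h (or 24 h), then luciferase luminescence read. Signal normalized to vehicle (100%); IC50 by four-parameter nonlinear fit; five independent experiments, triplicate wells.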

[4] = test system: HepG2_LSSprom cells; experiment: Cytotoxicity assay (LDH release) in HepG2_LSSprom cells; details: 5 μM, LDH release relative to lysis control
Outline: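 HepG2_LSSprom cells exposed to compound at 0.625–10 μM in serum-free medium for 6 h or 24 h. Medium LDH measured colorimetrically at 490 nm; release expressed as % of lysis control after vehicle subtraction, negatives set to 0; five independent experiments, triplicate wells, mean±SEM.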

SMILES: CCCc1cc(-c2nc(-c3ccc(C(=O)N(C)C)cc3)cs2)ccn1 [Compound 2, N,N-dimethyl-4-[2-(2-propylpyridin-4-yl)-1,3-thiazol-4-yl]benzamide]
- Average SREBP2 cleavage (% Inhibition, n = 3) [1]: 73.85 % Inhibition
- Average Viability (% Inhibition, n = 3) [2]: 30.73 % Inhibition

SMILES: CCCc1cc(-c2nc(-c3ccc(C(N)=O)cc3)cs2)ccn1 [Compound 3, 4-[2-(2-propylpyridin-4-yl)-1,3-thiazol-4-yl]benzamide]
- Average SREBP2 cleavage (% Inhibition, n = 3) [1]: 12.18 % Inhibition
- Average Viability (% Inhibition, n = 3) [2]: 19.52 % Inhibition

SMILES: CC(C)(C)c1cc(-c2nc(-c3ccc(C(=O)N4CCCCC4)cc3Cl)cs2)ccn1 [Compound 5, 2-tert-butyl-4-{4-[2-chloro-4-(piperidine-1-carbonyl)phenyl]-1,3-thiazol-2-yl}pyridine]
- SREBP2 Cleavage (5 μM) (% Inh) [3]: 71 % Inh
- Cytotoxicity (5 μM) % [4]: 4%

SMILES: CN(C)C(=O)c1ccc(-c2csc(-c3cccc4[nH]ccc34)n2)c(Cl)c1 [Compound 6, 3-chloro-4-[2-(1H-indol-4-yl)-1,3-thiazol-4-yl]-N,N-dimethylbenzamide]
- SREBP2 Cleavage (5 μM) (% Inh) [3]: 41 % Inh
- Cytotoxicity (5 μM) % [4]: 0%

SMILES: CN(C)C(=O)c1ccc(-c2csc(-c3ccnc(N4CCCCC4)c3)n2)c(Cl)c1 [Compound 9, 3-chloro-N,N-dimethyl-4-{2-[2-(piperidin-1-yl)pyridin-4-yl]-1,3-thiazol-4-yl}benzamide]
- SREBP2 Cleavage (5 μM) (% Inh) [3]: 52 % Inh
- Cytotoxicity (5 μM) % [4]: 1%
